From ChEMBL document CHEMBL4819137, “Huprine Y - Tryptophan heterodimers with potential implication to Alzheimer's disease treatment” (Bioorg Med Chem Lett, 2021)

How the values were obtained:
Nitric oxide synthase 1 [1] = target: T1, Nitric oxide synthase 1 (Homo sapiens, UniProt P29475)
Description: Inhibition of recombinant human nNOS

Nitric oxide synthase 1 [2] = target: T1, Nitric oxide synthase 1; remark: listed apart in the source
Description: Inhibition of recombinant human nNOS

Cholinesterase = Cholinesterase (Homo sapiens, UniProt P06276)
Description: Inhibition of recombinant human BuChE using butyrylthiocholine as substrate by Ellman's method

Acetylcholinesterase [3] = target: T2, Acetylcholinesterase (Homo sapiens, UniProt P22303)
Description: Inhibition of recombinant human AChE using acetylthiocholine as substrate by DTNB-reagent based Ellman's method

HepG2 = experiment: cells; conditions: Homo sapiens, HepG2, 24 h
Description: Cytotoxicity against human HepG2 cells assessed as reduction in cell viability measured after 24 hrs by MTT assay

Acetylcholinesterase [4] = target: T2, Acetylcholinesterase; experiment: Non competitive type inhibition of human AChE assessed as inhibition constant using varying levels of acetylthiocholine as substrate by double reciprocal Lineweaver-Burk plot analysis

Cholinesterase, sequence (P06276 whole entry): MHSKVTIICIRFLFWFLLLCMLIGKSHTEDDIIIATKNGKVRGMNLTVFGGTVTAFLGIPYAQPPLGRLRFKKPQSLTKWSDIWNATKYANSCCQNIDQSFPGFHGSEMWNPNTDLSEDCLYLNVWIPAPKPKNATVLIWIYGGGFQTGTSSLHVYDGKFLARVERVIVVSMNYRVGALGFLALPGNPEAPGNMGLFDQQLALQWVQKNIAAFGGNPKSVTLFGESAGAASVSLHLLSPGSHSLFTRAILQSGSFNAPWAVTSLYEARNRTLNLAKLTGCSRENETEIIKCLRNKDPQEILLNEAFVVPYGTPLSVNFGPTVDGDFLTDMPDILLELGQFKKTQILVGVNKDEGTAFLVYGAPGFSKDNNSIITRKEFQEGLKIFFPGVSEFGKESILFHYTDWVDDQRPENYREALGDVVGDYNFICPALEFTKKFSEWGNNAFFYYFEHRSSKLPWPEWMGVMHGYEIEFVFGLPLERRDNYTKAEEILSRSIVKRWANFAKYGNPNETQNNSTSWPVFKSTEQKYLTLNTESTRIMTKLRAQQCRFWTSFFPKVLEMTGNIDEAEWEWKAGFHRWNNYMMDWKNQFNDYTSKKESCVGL
T2 sequence (P22303 whole entry): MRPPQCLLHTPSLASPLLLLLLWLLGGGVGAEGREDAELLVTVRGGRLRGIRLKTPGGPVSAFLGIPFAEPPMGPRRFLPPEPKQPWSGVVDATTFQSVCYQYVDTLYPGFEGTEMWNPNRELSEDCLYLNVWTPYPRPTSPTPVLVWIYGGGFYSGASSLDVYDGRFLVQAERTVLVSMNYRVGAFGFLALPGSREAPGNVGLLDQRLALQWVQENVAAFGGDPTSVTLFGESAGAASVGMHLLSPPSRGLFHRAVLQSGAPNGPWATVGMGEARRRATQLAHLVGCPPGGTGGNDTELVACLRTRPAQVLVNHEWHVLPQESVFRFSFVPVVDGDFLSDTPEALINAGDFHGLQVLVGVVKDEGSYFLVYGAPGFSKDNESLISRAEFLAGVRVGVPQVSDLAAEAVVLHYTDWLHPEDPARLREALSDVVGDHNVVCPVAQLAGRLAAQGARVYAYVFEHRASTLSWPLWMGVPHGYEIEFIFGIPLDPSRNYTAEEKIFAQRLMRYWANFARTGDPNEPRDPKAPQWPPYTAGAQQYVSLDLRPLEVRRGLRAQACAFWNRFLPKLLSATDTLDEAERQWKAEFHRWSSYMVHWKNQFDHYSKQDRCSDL
T1 sequence (P29475 whole entry): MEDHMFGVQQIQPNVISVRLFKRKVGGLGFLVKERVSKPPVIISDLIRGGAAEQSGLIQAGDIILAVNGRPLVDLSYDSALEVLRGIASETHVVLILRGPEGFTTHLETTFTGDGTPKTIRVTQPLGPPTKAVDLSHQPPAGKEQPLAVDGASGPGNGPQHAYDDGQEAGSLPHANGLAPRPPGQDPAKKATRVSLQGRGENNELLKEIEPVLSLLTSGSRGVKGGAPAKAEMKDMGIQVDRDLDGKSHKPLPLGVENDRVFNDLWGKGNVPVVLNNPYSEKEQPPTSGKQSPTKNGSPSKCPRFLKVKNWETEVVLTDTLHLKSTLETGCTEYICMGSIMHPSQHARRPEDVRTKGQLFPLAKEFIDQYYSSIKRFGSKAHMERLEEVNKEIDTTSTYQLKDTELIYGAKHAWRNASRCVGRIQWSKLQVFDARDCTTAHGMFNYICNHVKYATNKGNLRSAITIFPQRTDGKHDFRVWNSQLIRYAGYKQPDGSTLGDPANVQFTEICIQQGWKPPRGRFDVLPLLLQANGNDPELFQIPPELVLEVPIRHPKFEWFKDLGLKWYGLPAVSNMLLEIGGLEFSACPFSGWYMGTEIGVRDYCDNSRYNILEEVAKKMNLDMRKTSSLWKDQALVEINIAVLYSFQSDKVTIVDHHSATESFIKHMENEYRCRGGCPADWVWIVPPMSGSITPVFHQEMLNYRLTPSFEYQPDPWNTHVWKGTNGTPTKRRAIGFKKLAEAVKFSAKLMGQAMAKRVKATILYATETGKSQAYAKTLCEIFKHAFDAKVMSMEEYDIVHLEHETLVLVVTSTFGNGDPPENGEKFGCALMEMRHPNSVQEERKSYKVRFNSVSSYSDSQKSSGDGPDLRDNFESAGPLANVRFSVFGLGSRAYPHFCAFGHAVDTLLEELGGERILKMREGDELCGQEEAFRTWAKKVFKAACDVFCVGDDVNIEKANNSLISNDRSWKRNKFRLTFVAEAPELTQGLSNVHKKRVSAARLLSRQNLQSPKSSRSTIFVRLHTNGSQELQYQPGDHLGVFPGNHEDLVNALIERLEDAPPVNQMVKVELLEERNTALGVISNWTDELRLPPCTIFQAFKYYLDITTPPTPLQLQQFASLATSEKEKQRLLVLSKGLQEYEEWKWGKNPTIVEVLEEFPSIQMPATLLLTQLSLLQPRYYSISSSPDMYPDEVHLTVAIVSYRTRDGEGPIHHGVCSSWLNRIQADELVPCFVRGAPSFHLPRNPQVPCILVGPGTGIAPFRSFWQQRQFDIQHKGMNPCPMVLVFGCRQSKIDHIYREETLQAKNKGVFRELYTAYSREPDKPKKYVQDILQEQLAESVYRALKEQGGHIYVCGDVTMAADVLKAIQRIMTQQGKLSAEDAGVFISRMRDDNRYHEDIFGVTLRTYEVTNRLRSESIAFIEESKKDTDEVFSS

IC50 (Nitric oxide synthase 1 [1]) | Compound | IC50 (Nitric oxide synthase 1 [2]) | IC50 (Cholinesterase) | IC50 (Acetylcholinesterase [3]) | IC50 (HepG2) | Ki (Acetylcholinesterase [4])
Not Active | COc1ccc2nc3c(c(N)c2c1)CCCC3 |  |  |  |  | 
Not Active | Nc1c2c(nc3cc(Cl)ccc13)CCCC2 |  |  |  |  | 
 | N[C@@H](Cc1c[nH]c2ccccc12)C(=O)NCCCCCCNc1c2c(nc3cc(Cl)ccc13)CCCC2 | 26 µM |  |  |  | 
 | CC1=CC2Cc3nc4cc(Cl)ccc4c(NCCCCCCNC(=O)[C@@H](N)Cc4c[nH]c5ccccc45)c3C(C1)C2 (some centres undefined) | 18.5 µM | 0.0457 µM | 0.0117 µM | 5.63 µM | 0.023 µM
 | CC1=CC2Cc3nc4cc(Cl)ccc4c(NCCCCCNC(=O)[C@@H](N)Cc4c[nH]c5ccccc45)c3C(C1)C2 (some centres undefined) | 24 µM | 0.0683 µM | 0.0227 µM | 4.77 µM | 
 | CC1=CC2Cc3nc4cc(Cl)ccc4c(NCCCCCCCNC(=O)[C@@H](N)Cc4c[nH]c5ccccc45)c3C(C1)C2 (some centres undefined) | 35 µM | 0.0845 µM | 0.0121 µM | 12.3 µM | 
 | COc1ccc2nc3c(c(N)c2c1)C1CC(C)=CC(C3)C1 (racemic) | 32 µM |  |  | 14.9 µM | 
 | CC1=CC2Cc3nc4cc(Cl)ccc4c(N)c3C(C1)C2 (racemic) |  |  |  | 15.9 µM | 
